These results are taken from patent US20070179135A1 (priority 2006, published 2007).

The structures appear in SMILES notation. Values after ≈ are worked out from the molar mass of the structure shown. Read-outs that look alike come from different tables or passages of the source.

One data set deals with Monocyte/macrophage. In words: XTT viability (TC50) in monocyte/macrophage assay. The following applies: for CC50: read-out: TC50 (50% cytotoxicity), column head blank. The protocol:
Monocyte Isolation and Culture.
(§1) XTT Staining for Viability. Absence of toxicity was assessed by reduction of 2,3-bis(2-methoxy-4-nitro-5-sulfophenyl)-5-[(phenylamino)carbonyl]2H-tetrazolium hydroxide (XXT). 50 μl of a solution containing 1 mg/ml XTT and […] phenazine methanesulfate (PMS) was added per well, and the plate was incubated for 4 hours at 37° C. Adhesive plate sealers were used in place of the lids so that the sealed plates could be inverted several times to mix the soluble reaction product. Following this incubation, the plates were read spectrophotometrically at 450 nm to assess the degree of reduction product.
(Tetrazolium dyes change colour on reduction, which living cells bring about.)

The subject of another data set is PBMC. The experiment in a line: XTT viability (TC50) in PBMC assay. The following applies: PBMC, XTT; for CC50: read-out: TC50 (50% cytotoxicity). The protocol:
as §1

Data set [1] concerns HIV in latently infected U1 cells. The experiment in a line: TNF induced U1 cells (RT), latently infected cells. The data set is classed as cell-based.
For another data set, the system named is U1 cells. The experiment in a line: XTT viability (TC50) in TNF induced U1 cells. The data set is classed as cell-based. An excerpt: Latently Infected Cells. […] PBMC Isolation and Blasting.
XTT Staining for Viability.

Data set [2] has as its system HIV-1. Particulars: monocyte/macrophage, HIV-1, p24 ELISA; for IC50: read-out: IC50 (50% inhibition of virus replication). Background: An ELISA detects its analyte on a solid surface through an enzyme-linked reagent.
Protocol: (§5) Monocyte Isolation and Culture. Peripheral blood monocytes (PBM) were obtained from healthy HIV- and hepatitis-negative donors by ficoll hypaque purification (optionally using recombinant IFNγ. After 7 days, the cultures were washed to remove non adherent cells, and test compounds were added followed by HIV-1. Cultures were washed a final time by media removal 24 hours post infection, fresh test compound was added, and the cultures continued for an additional seven days. Virus replication was then measured by expression of supernatant p24 antigen by commercially available ELISA assays. AZT was used as a positive control run in parallel with each determination.
(§6) Analysis of p24. Viral protein production (p24) was assessed by standard ELISA.
The subject of data set [3] is HIV-1. The following applies: PBMC, HIV-1, RT activity, 7 days; for IC50: read-out: IC50 (50% inhibition of virus replication).
Protocol: (§7) PBMC Isolation and Blasting. Peripheral blood mononuclear cells (PBMC) obtained from healthy HIV- and hepatitis-negative patients were washed to remove residual gradient separation material. The washed cells were then counted, and their viability assessed. Following this initial preparation, the cells are suspended in RPMI 1640 medium supplemented with 15% inactivated fetal bovine serum, 2 nM L-glutamine, 100 U/ml penicillin, 100 μg/ml streptomycin, and 10 μg/ml gentamycin with 2 μg/ml PHA at 1×10^6 cells/ml. Following a 2 to 3 day incubation (37° C., 5% CO2), the cells were collected by centrifugation, washed, and resuspended in the same medium, supplemented with recombinant IL-2. The cultures were then maintained until use by ½ volume change with fresh IL-12 containing medium every 3 days.
(§8) PBMC Assay. When ready for use, PBMCs from a minimum of two donors that have been blasted with PHA and IL-1 were mixed, counted, and viability determined by trypan blue exclusion. The cells were then resuspended in […] cells/ml in RPMI 1640 supplemented with 15% fetal bovine serum (heat inactivated), 2 mM L-glutamine, 100 U/ml penicillin, 100 μg/ml streptomycin, 10 μg/ml gentamycin and IL-2 (20 U/ml). 50 tl of cells were then distributed to the inner 60 wells of a 96 well plate. Each plate contains cell control wells (cells only), virus control wells (cells plus virus), drug toxicity control wells (cells plus test compound), drug colorimetric control wells (drug only) as well as experimental wells (drug plus cells plus virus). Diluted compounds were then added to the microliter plate followed by the appropriate pre-titered strain of HIV-1. All samples were assayed in triplicate with a sister plate for the determination of compound toxicity. The final volume per well was 200 μl. The assay was incubated for 7 days at 37° C., 5% CO2, after which supernatants were collected for analysis of RT activity and sister plates for assessment of cell viability.
(§9) Reverse Transcriptase Assay. HIV reverse transcriptase was measured in cell free supernatants. Titrated TTP was resuspended in distilled H2O at 5 Ci/ml. Poly rA and oligo dT were prepared as a stock solution which was kept at −20° C. The RT reaction buffer (125 μl 1M EGTA, 125 μl dH20, 110 μl 10% SDS, 50 μl 1M Tris (pH 7.4), 50 μl 1M DTT, and 40 M1 1M MgCL2) was prepared fresh. The three solutions were then mixed together in a ratio of 2 parts TTP, 1 part polyrA:oligo dT, and 1 part buffer. Ten μl of this reaction mixture was then placed in a round bottom micro-liter plate, and 15 ul of virus-containing supematant was added. The plate was incubated at 37° C. in a water bath with a solid support for 60 minutes. Following the reaction, the volume was spotted onto pieces of DE81 paper, washed 5 times for 5 minutes each in a 5% sodium phosphate buffer, 2 times for 1 minute in distilled water, 2 times for 1 minute each in 70% ethanol, and then dried. Opti-Fluor 0 was then added to each sample and incorporated radioactivity was quantified using a scintillation counter.
Data set [4] concerns HIV-1. Particulars: for antiviral activity (in words): pooled data of Table 1.
Data set [5] is described as follows: XTT viability (TC50) in PBMC assay. Particulars: human, PHA-blasted PBMCs. On the procedure:
as §1

The next data set concerns SNB-7 (CNS). The experiment in a line: Antineoplastic assessment, SRB assay, SNB-7. The data set is classed as cell-based. The following applies: read-out: IC50 Molar Values. On the procedure:
(§2) Cell Lines. Cell lines indicated in table 2 were propagated under sterile conditions in RPMI 1640 or DMEM with 10% fetal calf serum, 2 mM L-glutamine, and sodium bicarbonate (“complete medium”) and incubated at 37° C. 5% CO2 and 95% humidity. Each cell line was subcultured once or twice weekly, and they were periodically screened for mycoplama contamination (positive cultures were cured over three passages with antibiotic). Only cultures free of mycoplasma were used for antineoplastic assessment. Antineoplastic Assessment. Cells from each cell line were harvested, pelleted to remove the media, and then suspended in fresh complete medium. The cell count was determined and viability was measured with propidium iodide staining. The cells were adjusted with complete medium to a density of 5×10^3 cells/ml. […]
(§3) Following acclamation, the compounds indicated in table 2 were diluted in complete medium. […] Each culture plate contains a cell control (8 wells, mock treated with complete medium), a medium control (7 wells with medium used to subtract out signal generated by media conditions), a solvent control (8 wells), and an air blank (1 well) for calibrating the plate reader. […]
(§4) Five days after treatment, the cells were analyzed for antineoplastic effects using the SRB assay to calculate IC50 for each treatment.
(In SRB staining, fixed cells bind dye roughly in proportion to their protein.)

For another data set, the system named is DLO-1 (colon). The experiment in a line: Antineoplastic assessment, SRB assay, DLO-1. In kind it is cell-based. The following applies: read-out: IC50 Molar Values. On the procedure: as §2, §3, §4
For a further data set, the system named is NCI-H23 (lung). In words: Antineoplastic assessment, SRB assay, NCI-H23. The following applies: Homo sapiens, NCI-H23, 120 h, read-out: IC50 Molar Values. The data set is classed as cell-based. On the procedure:
as §2, §3, §4

The subject of a further data set is PC-3 (prostate). The experiment in a line: Antineoplastic assessment, SRB assay, PC-3. In kind it is cell-based. Particulars: read-out: IC50 Molar Values. On the procedure: as §2, §3, §4
The next data set deals with CAKI-1 (renal). In words: Antineoplastic assessment, SRB assay, CAKI-1. In kind it is cell-based. Particulars: read-out: IC50 Molar Values. The protocol: as §2, §3, §4
The subject of a further data set is six cell lines. In words: Antineoplastic assessment, SRB assay, summary over six cell lines. Particulars: 120 h, read-out: IC50 in six cell lines. The data set is classed as cell-based. On the procedure:
as §2, §3, §4

The subject of data set [6] is HIV-1. The experiment in a line: microbe, parasite or virus in culture. The following applies: Human immunodeficiency virus 1, PBMC, 168 h, read-out: IC50 (50% inhibition of virus replication).
Protocol: as §7, §8, §9
Data set [7] relates to HIV-1. In words: microbe, parasite or virus in culture. Particulars: Human immunodeficiency virus 1, read-out: IC50 (50% inhibition of virus replication).
Protocol: as §5, §6
For the next data set, the target named is CB2 receptor (Homo sapiens, UniProt P34972). Particulars: cited from earlier work; for Ki: CB2 receptor; for Ki-CB1/Ki-CB2 ratio: selectivity CB1 versus CB2.
Chain of CB2 receptor (P34972 whole entry): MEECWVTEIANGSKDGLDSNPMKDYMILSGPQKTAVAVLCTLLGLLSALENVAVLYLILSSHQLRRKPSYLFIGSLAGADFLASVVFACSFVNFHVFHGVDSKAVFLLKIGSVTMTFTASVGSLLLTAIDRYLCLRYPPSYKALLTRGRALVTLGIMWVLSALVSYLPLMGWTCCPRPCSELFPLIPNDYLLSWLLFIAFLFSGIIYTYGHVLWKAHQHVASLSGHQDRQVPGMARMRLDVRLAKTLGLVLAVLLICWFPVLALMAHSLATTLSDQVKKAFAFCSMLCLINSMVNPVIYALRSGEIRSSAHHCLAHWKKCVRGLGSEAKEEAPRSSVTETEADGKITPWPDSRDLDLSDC
The test system of the next data set is ZR-75-1 (mammary). In words: Antineoplastic assessment, SRB assay, ZR-75-1. In kind it is cell-based. Particulars: five days, read-out: IC50 Molar Values. On the procedure: as §2, §3, §4
Setting [8] is: Human immunodeficiency virus 1, read-out: IC50 (50% inhibition of virus replication).

As for `CCCCCc1cc(O)c2c(c1)OC(C)(C)C1CCC(C(=O)O)=CC21` (centres unmarked), the “TC50 (50% cytotoxicity), column head blank” value in the data set with Monocyte/macrophage turned out to be 76.73 µg/mL (≈ 223 µM). Besides, the “TC50 (50% cytotoxicity)” value in the data set on PBMC was determined as 71.1 µg/mL (≈ 206 µM); in the data set on U1 cells it was 23.71 µg/mL (≈ 68.8 µM). Moreover, the “IC50 (50% inhibition of virus replication)” value in [1] worked out at 6.69 µg/mL; in the data set on HIV-1 [2], 7.79 µg/mL; in the data set with HIV-1 [3], 39.09 µg/mL. Further, in the data set on HIV-1 [4], the “antiviral activity (in words)” value was “moderate antiviral activity”.

Consider `CC(C)CCCC(C)(C)c1cc(O)cc(O)c1`, for which the melting point lay within 95 to 96 °C. The same compound displayed a CC50 at 7 days in data set [5] of 44.6 µM. Moreover, the IC50 in the data set with SNB-7 (CNS) (Homo sapiens, SNB-7, 120 h) stood at 95 µM. The IC50 in the data set with DLO-1 (colon) (120 h) came to 90 µM. In the data set with NCI-H23 (lung), the IC50 is 77 µM. For the same compound, in the data set with PC-3 (prostate) (120 h), the IC50 worked out at 84 µM. Besides, the IC50 in the data set with CAKI-1 (renal) (Homo sapiens, CAKI-1, 120 h) was 93 µM. Moreover, the 50% inhibitory concentration (IC50) in the data set with six cell lines is 77 to 95 µM. In the data set on HIV-1 [4], the “antiviral activity (in words)” value was “moderate antiviral activity”. Moreover, the IC50 with HIV-1 [6] is 14.8 µM.

Turning to `COc1cc(O)cc(C(C)(C)CCCC(C)C)c1` [3-methoxy-5-(1,1,5-trimethylhexyl)phenol], the CC50 at 7 days in [5] turned out to be 46.4 µM. Further, the IC50 in the data set with HIV-1 [6] was found to be 39.9 µM.

`COc1cc(C(C)(C)CCCC(C)C)cc(OC)c1O` [4-(1,1,5-trimethylhexyl)-2,6-dimethoxy phenol] had a CC50 at 7 days in data set [5] of 50.9 µM. The “antiviral activity (in words)” value in the data set with HIV-1 [4] is recorded as “moderate antiviral activity”. Also, in the data set with HIV-1 [6], the IC50 was found to be 15.8 µM.

`COc1cc(OC)cc(C(C)(C)CCCC(C)C)c1` [4-(1,1,5-trimethylhexyl)-2,6-dimethoxybenzene] displayed a CC50 at 7 days in data set [5] of more than 200 µM. For the same compound, the half-inhibitory concentration (IC50) with HIV-1 [6] was more than 200 µM.

As for `CCCCCc1cc(O)c2c(c1)OC(C)(C)[C@@H]1CCC(C)=C[C@@H]21` [A9 tetrahydrocannabinaol, reference compound], the “TC50 (50% cytotoxicity), column head blank” value in the data set on Monocyte/macrophage is more than 0.1 µg/mL. The “TC50 (50% cytotoxicity)” value in the data set with PBMC is more than 0.1 µg/mL; with U1 cells, 0.088 µg/mL (≈ 0.28 µM). Moreover, the “IC50 (50% inhibition of virus replication)” value in data set [1] was 0.06 µg/mL; in the data set on HIV-1 [2], more than 0.1 µg/mL; in the data set with HIV-1 [3], 0.07 µg/mL.

Consider `Cc1cn([C@H]2C[C@H](N=[N+]=[N-])[C@@H](CO)O2)c(=O)[nH]c1=O` [AZT, reference compound], for which, in the data set on Monocyte/macrophage, the CC50 was more than 4 µM.

As for `C=C(C)[C@@H]1CCC(C)=C[C@H]1c1c(O)cc(CCCCC)cc1O` [Cannabidiol, reference compound], the “TC50 (50% cytotoxicity), column head blank” value in the data set with Monocyte/macrophage came to 22.87 µg/mL (≈ 72.7 µM). The “TC50 (50% cytotoxicity)” value in the data set with PBMC came to 7.76 µg/mL (≈ 24.7 µM); in the data set with U1 cells, 7.8 µg/mL (≈ 24.8 µM). For the same compound, the results for the IC50 (in data set [1] (setting [8]); with HIV-1 [7]; with HIV-1 [6]) were 2.76 µg/mL, 8.18 µg/mL (≈ 26 µM) and 1.52 µg/mL, respectively. Moreover, the “antiviral activity (in words)” value with HIV-1 [4] is “moderate antiviral activity”.

Take `CCCCCc1cc(O)c2c(c1)OC(C)(C)c1ccc(C)cc1-2` [Cannabinol]: the “TC50 (50% cytotoxicity), column head blank” value in the data set with Monocyte/macrophage stood at 13.07 µg/mL (≈ 42.1 µM). The “TC50 (50% cytotoxicity)” value turned out to be 7.66 µg/mL (≈ 24.7 µM) with PBMC and 5.26 µg/mL (≈ 16.9 µM) in the data set with U1 cells. Moreover, the IC50 in [1] (setting [8]) was 5.14 µg/mL; in the data set with HIV-1 [7] it was 7.7 µg/mL (≈ 24.8 µM); in the data set on HIV-1 [6], 6.91 µg/mL.

Regarding `Nc1ccn([C@H]2CC[C@@H](CO)O2)c(=O)n1` [DdC, reference compound], the CC50 with Monocyte/macrophage and in the data set with PBMC was more than 10 µM throughout. Moreover, the IC50 in the data set on HIV-1 [2] is 0.0028 µM; with HIV-1 [3], 0.0876 µM.

In the case of `CCO` [EtOH], in the data set on Monocyte/macrophage, the “TC50 (50% cytotoxicity), column head blank” value was more than 1%. In addition, the “TC50 (50% cytotoxicity)” value in the data set on PBMC and in the data set with U1 cells was more than 0.1% each time. In addition, the “IC50 (50% inhibition of virus replication)” value in data set [1] was more than 0.1%; in the data set with HIV-1 [2], 0.06%; in the data set on HIV-1 [3], more than 0.1%.

`CCCCCCC(C)(C)c1cc(OC)c2c(c1)OC(C)(C)[C@@H]1CC=C(C)C[C@@H]21` [Example L759633]: at CB2 receptor, the Ki was 0.0064 ± 0.0022 µM and the Ki-CB1/Ki-CB2 ratio is 162.97.

Regarding `C=C1CC[C@@H]2[C@@H](C1)c1c(OC)cc(C(C)(C)CCCCCC)cc1OC2(C)C` [Example L759656], on CB2 receptor, the Ki is 0.0118 ± 0.0025 µM and the Ki-CB1/Ki-CB2 ratio was 414.24.

In the case of `CCCCCn1cc(C(=O)c2cccc3ccccc23)c2ccccc21` [JWH-018], on CB2 receptor, the Ki is 0.00294 ± 0.00265 µM and the Ki-CB1/Ki-CB2 ratio is reported as 3.23.

For the compound `CCCCCc1cc(O)cc(O)c1` [Olivitol], the CC50 in the data set on Monocyte/macrophage is 75.9 µM; in the data set with PBMC it was more than 100 µM; in the data set on U1 cells (read-out: TC50 (50% cytotoxicity)) it was 77.5 µM. Further, the IC50 in data set [1] (read-out: IC50 (50% inhibition of virus replication)) is 22.5 µM; in the data set on SNB-7 (CNS) (SNB-7 (CNS), SRB, five days) it was 220 µM; with DLO-1 (colon) (DLO-1 (colon), SRB, five days) it was 230 µM; in the data set on ZR-75-1 (mammary) it was 200 µM; with PC-3 (prostate) (PC-3 (prostate), SRB, five days) it was 200 µM; in the data set on CAKI-1 (renal) (CAKI-1 (renal), SRB, five days) it was 220 µM. The IC50 in the data set on HIV-1 [2] was determined as 63.7 µM; with HIV-1 [3], 16.9 µM. In addition, the “antiviral activity compared between cell systems (in words)” value in the data set with HIV-1 [4] (PBMCs and TNFa induced U1 cells versus monocytes/macrophages or uninduced U1 cells) is “more pronounced in the PBMCs and TNFa induced U1 cells than in monocytes/macrophages or uninduced U1 cells”. Besides, the “antiviral activity (in words)” value in the data set with HIV-1 [4] is recorded as “moderate antiviral activity”.

In the case of `Cc1cc(O)cc(O)c1` [Orcinol], in data set [5], the CC50 at 7 days is more than 200 µM. For the same compound, the IC50 in the data set on HIV-1 [6] was more than 200 µM.

As for `Oc1cccc(O)c1` [Resorciol], the CC50 in the data set with PBMC is more than 200 µM. For the same compound, the IC50 in the data set with HIV-1 [3] was more than 200 µM.

The term IC50 denotes the concentration that gives 50% inhibition. For orientation: melting point means the temperature of the solid-liquid transition. The Ki is a measure of affinity in units of concentration, obtained from inhibition or displacement.
